Test results as given in PubChem BioAssay AID2740 (NMMLSC, 2010).
Calls of active or inactive are those of the source.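 Rule for the calls: active = compounds whose fitted half-maximal concentration for changing the GFP signal is at or below a set limit; inactive = the rest.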

assay: TOR pathway RPL19A-GFP modulators, concentration series – cell-based, S. cerevisiae, flow cytometry, MLPCN hits, dose response (AID 2740);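 note: background is signal of the same compound in parental non-GFP s288c yeast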; conditions: S. cerevisiae RPL19A-GFP strain, flow cytometry fluorescence, 3 h; at 33 µM (top of the series)

SMILES | GFP fluorescence, lower = active (kMESF (background-subtracted))
O=C1NC(=O)N(CCc2ccc(F)cc2)C(=O)/C1=C/c1cccs1 | 38.2 (inactive)
CCCCOc1ccc(C(=O)NNC(=S)NC(=O)CC)cc1 | 43 (inactive)
Cc1ccc(N=c2ssnc2Cl)cc1 | 23 (inactive)
COc1ccc(CCNC2=C(Cl)C(=O)N(CCc3ccccc3)C2=O)cc1OC | 40 (inactive)
Cc1ccc(/C=C2\C(=O)NC(=S)N(c3ccc(F)cc3)C2=O)s1 | 38 (inactive)
COc1ccc(C(=O)/C=C2/C(=O)Nc3ccccc32)cc1OC | 43.1 (inactive)
CC1(c2ccccc2)ON(c2ccccc2C(F)(F)F)C1=O (centres undefined) | 40 (inactive)
COc1cc(NC(=O)c2cccc(C)c2)ccc1NC(=O)c1cc2ccccc2o1 | 39.6 (inactive)
Cc1ccc(C(=O)Sc2cccccc2=O)cc1 | 27.8 (inactive)
O=C(/C=C/c1ccnc2ccccc12)c1cccs1 | 38 (inactive)
O=C(Nc1ccccc1)ON=C1CCCC1 | 42.1 (inactive)
O=[N+]([O-])c1ccc(Sc2nc3ccccc3o2)c([N+](=O)[O-])c1 | 45.5 (inactive)
CCCc1nnc(NC(=O)c2c(O)c3cccc4c3n(c2=O)CCC4)s1 | 14.6 (inactive)
COc1ccc(C=C2C(=O)c3ccccc3C2=O)cc1O | 38.1 (inactive)
CC[C@]1(c2ccccc2OC)ON(c2ccccc2C(F)(F)F)C1=O | 33.7 (inactive)
Cc1nn(C)c(C)c1N1C(=O)c2cccc3c(Br)ccc(c23)C1=O | 40.3 (inactive)
CC(=O)Oc1oc(-c2ccccc2)nc1C=Nc1ccccc1 | 39.7 (inactive)
O=S(=O)(CCN(CCS(=O)(=O)C(F)(F)F)CC1CCCO1)C(F)(F)F (centres undefined) | 27.1 (inactive)
CCc1ccc(OCC(=O)NNC(=S)NC(=O)C2CC2)c(Br)c1 | 45.8 (inactive)
CCOC(=O)Cn1cc(/C=C/[N+](=O)[O-])c2ccccc21 | 39.5 (inactive)

SMILES | GFP fluorescence, lower = active (kMESF (background-subtracted))
O=C(c1ccc(Cl)cc1)N1CCN(c2cccc3[nH]ccc23)CC1 | 41.9 (inactive)
COc1cc(N2C(=O)C=CC2=O)c(OC)cc1Cl | 18.8 (inactive)
O=C(NC(=S)Nc1ccc2oc(=O)ccc2c1)c1cccc(Cl)c1 | 37.2 (inactive)
O=c1oc(/C=C/c2ccc([N+](=O)[O-])s2)nc2ccccc12 | 55 (inactive)
CC(=O)OC[C@]12CC[C@H]3[C@@](C)(CC[C@H]4C(C)(C)CCC[C@]34C)[C@@H]1C[C@H](C1=CC(=O)O[C@@H]1OC(C)=O)O2 | 18.7 (inactive)
CN1C(=O)/C(=N\OC(=O)c2cccc3ccccc23)c2ccccc21 | 42.9 (inactive)
COc1cc(C=C2C(=O)c3ccccc3C2=O)cc(OC)c1OC | 43.2 (inactive)
Cc1[nH][nH]c(=O)c1C(c1ccc(-c2ccc(Cl)cc2)o1)c1c(C)[nH][nH]c1=O | 41.2 (inactive)
O=C(NC(=S)NNC(=O)c1cnccn1)c1ccc(Cl)cc1 | 48.5 (inactive)
CCOC(=O)c1ccc(N=Cc2nc(-c3ccccc3)oc2OC(C)=O)cc1 | 41.6 (inactive)
O=C(Nc1nnc(-c2ccc(F)cc2)o1)c1cccc([N+](=O)[O-])c1 | 43.5 (inactive)
CCOC(=O)CSC1=NC(=O)/C(=C\c2ccc(Cl)cc2)S1 | 31.9 (inactive)
O=[N+]([O-])c1cc(CN2CCN(c3cccc(C(F)(F)F)c3)CC2)c2cccnc2c1O | 22.7 (inactive)
O=C(O)c1ccccc1SC1CC(=O)N(c2ccc3c(c2)OCO3)C1=O (centres undefined) | 43.5 (inactive)
O=C(/C=C/c1ccccc1)NC(=S)NNC(=O)Cc1cccs1 | 45.5 (inactive)
CCCN1CCc2c(sc(NC(=S)NC(=O)c3ccccc3)c2C#N)C1 | 47.6 (inactive)
Cc1ccc(N2C(=O)C(Cl)=C(Nc3c(C)n(C)n(-c4ccccc4)c3=O)C2=O)cc1 | 39 (inactive)
Oc1ccc(COCc2ccccc2)c2cccnc12 | 46.5 (inactive)
O=C(/C=C/c1ccc(Br)cc1)NC(=S)NNC(=O)c1ccco1 | 50.2 (inactive)
